Data: patent publication US11912701B2, “Protein kinase inhibitors for promoting liver regeneration or reducing or preventing hepatocyte death” (HEPAREGENIX GMBH, priority 2018, dated 2024)

What was measured:
MKK7 [1] = molecular target: T1, MKK7 (Homo sapiens, UniProt O14733); assay: KINOMEscan competition binding assay, MKK7; set-up: M1/R419; host or cells: HEK-293; conditions: ratio PoC (off-target)/PoC (MKK4)
T1 sequence (O14733 1-419): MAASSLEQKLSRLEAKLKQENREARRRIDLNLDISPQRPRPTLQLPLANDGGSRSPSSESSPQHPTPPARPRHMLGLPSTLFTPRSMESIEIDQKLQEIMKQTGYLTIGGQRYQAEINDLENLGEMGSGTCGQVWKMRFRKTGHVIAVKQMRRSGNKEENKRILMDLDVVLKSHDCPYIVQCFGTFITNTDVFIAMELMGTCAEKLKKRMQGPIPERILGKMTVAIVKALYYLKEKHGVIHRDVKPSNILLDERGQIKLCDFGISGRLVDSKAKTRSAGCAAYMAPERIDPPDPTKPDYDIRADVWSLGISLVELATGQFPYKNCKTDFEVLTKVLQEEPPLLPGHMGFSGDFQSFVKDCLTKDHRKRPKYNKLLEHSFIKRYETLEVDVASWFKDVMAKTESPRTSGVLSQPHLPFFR
In short: (§1)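 DNA-tagged kinases expressed in HEK-293 cells compete between immobilized ligand on blocked beads and test compound at 100 nM; kinase retained on beads quantified by qPCR of the tag.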

JNK1 [2] = molecular target: T2, JNK1 (Homo sapiens, UniProt P45983); assay: KINOMEscan competition binding assay, JNK1; set-up: M1/Q384; host or cells: HEK-293; conditions: ratio PoC (off-target)/PoC (MKK4)
In short: as §1
Target sequence in this assay (P45983 1-384 isoform P45983-2): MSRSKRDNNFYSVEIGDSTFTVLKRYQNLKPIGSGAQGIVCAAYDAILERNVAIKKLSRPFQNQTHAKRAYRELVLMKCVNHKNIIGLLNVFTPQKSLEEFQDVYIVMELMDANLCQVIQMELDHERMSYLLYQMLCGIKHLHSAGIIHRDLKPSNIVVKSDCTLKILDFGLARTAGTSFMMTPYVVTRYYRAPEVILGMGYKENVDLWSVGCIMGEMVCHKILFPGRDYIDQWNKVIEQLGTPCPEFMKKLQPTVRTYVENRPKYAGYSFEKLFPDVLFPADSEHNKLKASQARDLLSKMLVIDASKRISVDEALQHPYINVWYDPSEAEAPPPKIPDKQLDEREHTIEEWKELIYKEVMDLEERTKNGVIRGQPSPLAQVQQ

BRaf [3] = molecular target: T3, BRaf (Homo sapiens, UniProt P15056); assay: 33PanQinase enzyme assay, BRaf; type: biochemical; conditions: ratio IC50(BRaf)/IC50(MKK4)
T3 construct: purchased ProQinase GmbH, Freiburg, Germany (33PanQinase Assay Service)
T3 sequence (P15056 whole entry, species assumed): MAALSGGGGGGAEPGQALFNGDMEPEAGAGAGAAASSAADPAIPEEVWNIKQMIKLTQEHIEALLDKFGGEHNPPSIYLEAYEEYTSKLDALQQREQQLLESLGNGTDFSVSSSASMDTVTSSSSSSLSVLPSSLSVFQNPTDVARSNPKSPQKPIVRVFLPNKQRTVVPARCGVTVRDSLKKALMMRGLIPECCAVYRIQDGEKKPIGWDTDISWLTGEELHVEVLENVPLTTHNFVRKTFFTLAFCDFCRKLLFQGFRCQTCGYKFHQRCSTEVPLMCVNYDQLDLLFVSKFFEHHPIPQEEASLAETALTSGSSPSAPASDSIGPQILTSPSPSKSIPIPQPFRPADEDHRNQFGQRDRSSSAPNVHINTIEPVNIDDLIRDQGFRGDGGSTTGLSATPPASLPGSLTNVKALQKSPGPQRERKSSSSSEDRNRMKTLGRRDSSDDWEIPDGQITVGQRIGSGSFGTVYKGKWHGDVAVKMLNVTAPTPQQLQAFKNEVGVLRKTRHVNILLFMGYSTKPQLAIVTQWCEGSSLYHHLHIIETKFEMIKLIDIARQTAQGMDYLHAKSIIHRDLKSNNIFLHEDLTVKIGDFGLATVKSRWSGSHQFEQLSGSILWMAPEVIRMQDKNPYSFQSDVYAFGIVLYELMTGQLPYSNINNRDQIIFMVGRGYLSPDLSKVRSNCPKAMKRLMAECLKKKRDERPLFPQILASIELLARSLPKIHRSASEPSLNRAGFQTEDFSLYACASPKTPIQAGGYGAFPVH
In short: (§2)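 Off-target selectivity is the ratio IC50(off-target)/IC50(MKK4), with IC50 values from least-squares fitting and single-point data as % residual activity. Reactions of enzyme/substrate mix, ATP and compound ran 60 min at 30° C before H3PO4 stop; ^33P incorporation read on a scintillation counter.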

MKK4 [4] = molecular target: T4, MKK4 (Homo sapiens, UniProt P45985); assay: KINOMEscan competition binding assay, MKK4; conditions: residual percent of control binding (PoC) at 100 nM
T4 construct: S84/D399; host or cells: HEK-293
T4 sequence (P45985 84-399): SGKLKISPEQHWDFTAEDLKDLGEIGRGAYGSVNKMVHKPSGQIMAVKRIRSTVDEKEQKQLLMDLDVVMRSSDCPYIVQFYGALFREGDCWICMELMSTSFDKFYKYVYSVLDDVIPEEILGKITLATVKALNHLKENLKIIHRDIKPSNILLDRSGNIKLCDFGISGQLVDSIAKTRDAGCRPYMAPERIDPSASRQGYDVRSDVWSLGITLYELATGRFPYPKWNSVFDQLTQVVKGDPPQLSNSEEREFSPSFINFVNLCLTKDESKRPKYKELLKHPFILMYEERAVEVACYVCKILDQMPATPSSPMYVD
In short: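 Tested at 100 nM and reported as percent of control binding (PoC). MKK4 was produced in HEK-293 cells and DNA-tagged. Displacement from ligand-coated, blocked beads was read by qPCR of eluted kinase.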

JNK1 [5] = molecular target: T2, JNK1; assay: 33PanQinase enzyme assay, JNK1; type: biochemical; set-up: purchased ProQinase GmbH, Freiburg, Germany (33PanQinase Assay Service); conditions: ratio IC50(JNK1)/IC50(MKK4)
In short: as §2
Target sequence in this assay (P45983 whole entry): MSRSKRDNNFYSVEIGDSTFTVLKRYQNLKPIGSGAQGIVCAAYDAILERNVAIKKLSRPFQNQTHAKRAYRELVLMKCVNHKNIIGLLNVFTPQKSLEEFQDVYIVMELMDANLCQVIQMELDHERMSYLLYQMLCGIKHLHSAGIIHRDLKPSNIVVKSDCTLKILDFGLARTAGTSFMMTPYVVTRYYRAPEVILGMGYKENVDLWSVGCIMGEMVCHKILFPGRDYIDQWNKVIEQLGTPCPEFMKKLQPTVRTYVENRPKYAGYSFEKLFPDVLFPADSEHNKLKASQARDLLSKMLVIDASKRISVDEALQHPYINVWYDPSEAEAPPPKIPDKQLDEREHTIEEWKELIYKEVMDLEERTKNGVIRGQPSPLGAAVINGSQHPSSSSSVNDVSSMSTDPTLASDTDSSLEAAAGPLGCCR

MKK7 [6] = molecular target: T1, MKK7; assay: 33PanQinase enzyme assay, MKK7; type: biochemical; set-up: purchased ProQinase GmbH, Freiburg, Germany (33PanQinase Assay Service); conditions: ratio IC50(MKK7)/IC50(MKK4)
In short: as §2

BRaf [7] = molecular target: T3, BRaf; assay: KINOMEscan competition binding assay, BRaf; conditions: ratio PoC (off-target)/PoC (MKK4)
In short: as §1

MKK4 [8] = molecular target: T5, MKK4 (Homo sapiens, UniProt P45985); assay: 33PanQinase enzyme assay, MKK4; type: biochemical; conditions: assay 'IC50'; read-out: Potency MKK4 (IC50)
T5 construct: purchased ProQinase GmbH, Freiburg, Germany (33PanQinase Assay Service)
T5 sequence (P45985 1-399): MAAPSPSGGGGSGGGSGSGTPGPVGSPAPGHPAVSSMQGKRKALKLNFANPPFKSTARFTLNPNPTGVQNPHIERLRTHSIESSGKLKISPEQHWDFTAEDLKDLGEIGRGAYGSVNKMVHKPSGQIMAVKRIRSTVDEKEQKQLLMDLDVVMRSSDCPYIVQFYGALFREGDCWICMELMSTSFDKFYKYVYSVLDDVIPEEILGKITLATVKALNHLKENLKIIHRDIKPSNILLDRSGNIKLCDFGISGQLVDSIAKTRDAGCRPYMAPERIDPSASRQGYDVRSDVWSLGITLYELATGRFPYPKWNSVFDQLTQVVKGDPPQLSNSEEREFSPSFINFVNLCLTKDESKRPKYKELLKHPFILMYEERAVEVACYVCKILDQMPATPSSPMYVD
In short: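 Inhibition measured as 33Pi transfer to substrate after a 60-min, 30 °C reaction, acid-stopped and scintillation-counted.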

Row | SMILES | selectivity based on % Ctrl @100 nM vs. MKK7 (MKK7 [1]) | selectivity based on % Ctrl @100 nM vs. JNK1 (JNK1 [2]) | Selectivity Braf, IC50(off-target)/IC50(MKK4) (BRaf [3]) | MKK4 [% Ctrl @ 100 nM (MKK4 [4]) | Selectivity JNK1, IC50(off-target)/IC50(MKK4) (JNK1 [5]) | Selectivity IVIKK7, IC50(off-target)/IC50(MKK4) (MKK7 [6]) | selectivity based on % Ctrl @100 nM vs. Braf (BRaf [7]) | IC50 (MKK4 [8]) [nM]
1 | CCCS(=O)(=O)Nc1ccc(F)c(C(=O)c2c[nH]c3ncc(-c4ccc(C(F)(F)F)cc4)cc23)c1F [Example 106, N-(2,4-difluoro-3-(5-(4-(trifluoromethyl)phenyl)-1H-pyrrolo[2,3-b]pyridine-3-carbonyl)phenyl)propane-1-sulfonamide] | + (10 ≥ ratio > 3) | + (10 ≥ ratio > 3) | ◯ (3 ≥ IC50(off-target)/IC50(MKK4)) | + (3 ≤ PoC < 30) | + (10 ≥ IC50(off-target)/IC50(MKK4) > 3) | +++ (IC50(off-target)/IC50(MKK4) > 100) | ◯ (3 ≥ Ratio) | 100 to 1000
2 | O=C(c1cccc(NS(=O)(=O)Cc2ccccc2)c1F)c1c[nH]c2ncc(-c3ccncc3)cc12 [Example 129, N-(2-fluoro-3-(5-(pyridin-4-yl)-1H-pyrrolo[2,3-b]pyridine-3-carbonyl)phenyl)-1-phenylmethanesulfonamide] | +++ (Ratio > 100) | +++ (Ratio > 100) | ++ (100 ≥ IC50(off-target)/IC50(MKK4) > 10) | +++ (PoC < 1) | + (10 ≥ IC50(off-target)/IC50(MKK4) > 3) | +++ (IC50(off-target)/IC50(MKK4) > 100) | +++ (Ratio > 100) | 100 to 1000
3 | O=C(c1c(F)ccc(NS(=O)(=O)CCC(F)(F)F)c1F)c1c[nH]c2ncc(-c3ccc(N4CCS(=O)(=O)CC4)nc3)cc12 [Example 81, N-(3-(5-(6-(1,1-dioxidothiomorpholino)pyridin-3-yl)-1H-pyrrolo[2,3-b]pyridine-3-carbonyl)-2,4-difluorophenyl)-3,3,3-trifluoropropane-1-sulfonamide] | +++ (Ratio > 100) | +++ (Ratio > 100) | + (10 ≥ IC50(off-target)/IC50(MKK4) > 3) | +++ (PoC < 1) | ++ (100 ≥ IC50(off-target)/IC50(MKK4) > 10) | +++ (IC50(off-target)/IC50(MKK4) > 100) | +++ (Ratio > 100) | < 100
4 | CCCS(=O)(=O)Nc1ccc(F)c(C(=O)c2c[nH]c3ncc(-c4cccnn4)cc23)c1F [Example 48] | ++ (100 ≥ ratio > 10) | ++ (100 ≥ ratio > 10) | ◯ (3 ≥ IC50(off-target)/IC50(MKK4)) | + (3 ≤ PoC < 30) | ◯ (3 ≥ IC50(off-target)/IC50(MKK4)) | ++ (100 ≥ IC50(off-target)/IC50(MKK4) > 10) | ◯ (3 ≥ Ratio) | 1000 to 10000
5 | CCCS(=O)(=O)Nc1c(F)ccc(C(=O)c2c[nH]c3ncc(-c4ccc(N5CCC5)nc4)cc23)c1F [Example 162, N-(3-(5-(6-(azetidin-1-yl)pyridin-3-yl)-1H-pyrrolo[2,3-b]pyridine-3-carbonyl)-2,6-difluorophenyl)propane-1-sulfonamide] | +++ (Ratio > 100) | +++ (Ratio > 100) | ++ (100 ≥ IC50(off-target)/IC50(MKK4) > 10) | +++ (PoC < 1) | ++ (100 ≥ IC50(off-target)/IC50(MKK4) > 10) | +++ (IC50(off-target)/IC50(MKK4) > 100) | +++ (Ratio > 100) | 100 to 1000
6 | CCCS(=O)(=O)Nc1ccc(F)c(C(=O)c2c[nH]c3ncc(-c4ccccc4OC)cc23)c1F [Example 102, N-(2,4-difluoro-3-(5-(2-methoxyphenyl)-1H-pyrrolo[2,3-b]pyridine-3-carbonyl)phenyl)propane-1-sulfonamide] | ++ (100 ≥ ratio > 10) | ++ (100 ≥ ratio > 10) | ◯ (3 ≥ IC50(off-target)/IC50(MKK4)) | ++ (1 ≤ PoC < 3) | + (10 ≥ IC50(off-target)/IC50(MKK4) > 3) | +++ (IC50(off-target)/IC50(MKK4) > 100) | ++ (100 ≥ ratio > 10) | 100 to 1000
7 | CCCS(=O)(=O)Nc1c(F)ccc(C(=O)c2c[nH]c3ncc(-c4ccc(N(C)C)nc4)cc23)c1F [Example 161, N-(3-(5-(6-(dimethylamino)pyridin-3-yl)-1H-pyrrolo[2,3-b]pyridine-3-carbonyl)-2,6-difluorophenyl)propane-1-sulfonamide] | +++ (Ratio > 100) | +++ (Ratio > 100) | ++ (100 ≥ IC50(off-target)/IC50(MKK4) > 10) | +++ (PoC < 1) | ++ (100 ≥ IC50(off-target)/IC50(MKK4) > 10) | +++ (IC50(off-target)/IC50(MKK4) > 100) | +++ (Ratio > 100) | < 100
8 | CCCS(=O)(=O)Nc1ccc(F)c(C(=O)c2c[nH]c3ncc(-c4ccc(S(N)(=O)=O)nc4)cc23)c1F [Example 53] | +++ (Ratio > 100) | +++ (Ratio > 100) | ◯ (3 ≥ IC50(off-target)/IC50(MKK4)) | +++ (PoC < 1) | ◯ (3 ≥ IC50(off-target)/IC50(MKK4)) | +++ (IC50(off-target)/IC50(MKK4) > 100) | + (10 ≥ ratio > 3) | 100 to 1000
